Measurements taken from PubChem BioAssay (NCI).
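Briefly, cells in 96-well plates were exposed to five compound concentrations for 48 h, and endpoints were estimated by linear interpolation. TGI is the concentration that stops growth completely.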

How the values were obtained:
Assay in all cases: inhibition of tumour cell growth, NCI panel, 48 h
[1] = test system: TK-10 renal
[2] = test system: BT-549 breast
[3] = test system: 786-0 renal
[4] = test system: MDA-N
[5] = test system: COLO 205 colon
[6] = test system: OVCAR-4 ovarian
[7] = test system: OVCAR-8 ovarian
[8] = test system: PC-3 prostate
[9] = test system: MDA-MB-435
[10] = test system: HS 578T breast
[11] = test system: IGROV1 ovarian
[12] = test system: MCF7 breast
[13] = test system: EKVX NSCLC
[14] = test system: HOP-62 NSCLC
[15] = test system: SF-268 CNS
[16] = test system: HT29 colon
[17] = test system: UO-31 renal
[18] = test system: NCI-H23 lung
[19] = test system: CCRF-CEM leukemia
[20] = test system: A498 renal

SMILES | TGI [1] [µM] | TGI [2] [µM] | TGI [3] [µM] | TGI [4] [µM] | TGI [5] [µM] | TGI [6] [µM] | TGI [7] [µM] | TGI [8] [µM] | TGI [9] [µM] | TGI [10] [µM] | TGI [11] [µM] | TGI [12] [µM] | TGI [13] [µM] | TGI [14] [µM] | TGI [15] [µM] | TGI [16] [µM] | TGI [17] [µM] | TGI [18] [µM] | TGI [19] [µM] | TGI [20] [µM]
COc1cc(C2SCC(=O)N2c2ccc(Oc3ccc(Cl)cc3)c(Cl)c2)cc(OC)c1OC (configuration not stated) | 33.9 | 32.5 | 33.9 | 45.1 | 36.6 | > 100 | 30.7 | 28.9 | 41.3 | 40.7 | 30.7 | > 100 | 56.2 | 35.2 | 31 | 33.7 | 91.3 | > 100 |  | 
COc1ccccc1Nc1nc(NNC(=O)Cc2ccccc2)nc(NNC(=O)c2ccncc2)n1 | > 10 | > 10 | > 10 | > 10 | > 10 | > 10 | > 10 |  |  | > 10 | > 10 | > 10 | > 10 | > 10 | > 10 | > 10 |  | > 10 | > 10 | 
Cn1nc(S(N)(=O)=O)s/c1=N/C(N)=S | > 100 | > 100 | > 100 | > 100 | > 100 | > 100 | > 100 |  | > 100 | > 100 |  | > 100 | > 100 | > 100 | > 100 | > 100 | > 100 | > 100 | > 100 | > 100
COc1ccc(C2C(C#N)=C(S)N(C3OC(CO)C(O)C(O)C3O)C(c3ccccc3)=C2C(C)=O)cc1 (configuration not stated) | > 100 | > 100 | > 100 | > 100 | > 100 |  | > 100 | > 100 | > 100 | > 100 | > 100 | > 100 |  | > 100 | > 100 | > 100 | > 100 | > 100 | > 100 | > 100
CC(=O)O[C@H]1C(=O)[C@@]2(C)[C@H]([C@H](OC(=O)c3ccccc3)[C@]3(O)C[C@H](OC(=O)[C@H](O)[C@@H](NC(=O)CC(C)(C)C)c4ccccc4)C(C)=C1C3(C)C)C1(OC(C)=O)CO[C@@H]1C[C@@H]2O (some centres not stated) | > 10 | > 10 | > 10 | > 10 | 0.012 | > 10 | > 5.8 | > 10 |  | 0.00653 | > 10 | > 10 | > 10 |  | > 6.19 | 0.0133 | > 10 | > 10 | > 10 | > 10
Cc1ccc(N=Nc2c(C)c(C#N)c(=S)n(C3OC(CO)C(O)C(O)C3O)c2-c2ccccc2)cc1 (configuration not stated) | 67.6 | 42.1 | 49.8 | 71.7 | 57.4 | > 100 |  | 55.6 | 43.8 | 60.4 | > 100 | 34.7 |  | 54.2 | 68 | 89.2 | 86.9 | 40.4 | 48.1 | 33.2
C[C@]12CC[C@H](O)CC1=CC[C@@H]1[C@@H]2CC[C@]2(C)/C(=N/OCCN3CCCC3)CC[C@@H]12 | 63.6 | 37.6 | 33.6 | 34.3 | 30.1 | 36 | 30.7 | 39.4 | 29.4 | 83.8 | 34.3 | 44.9 | 49.2 | 53.2 | > 100 | 10.3 | 35.3 | 27.1 |  | 29.8
COc1ccc(/C=C2\N=C(c3ccccc3)N(C3Nc4cc5c(cc4S3)NC(N3C(=O)/C(=C/c4ccc(OC)cc4)N=C3c3ccccc3)S5)C2=O)cc1 (configuration not stated) | > 100 | 61.9 | > 100 | > 100 |  | > 100 | > 100 | > 100 | > 100 | > 100 | > 100 | > 100 | 99.5 | > 100 | > 100 | > 100 | > 100 | > 100 |  | > 100
CSC1=NS(=O)(=O)c2cc(C(=O)NN(C)C(=O)c3cc4c(cc3Cl)SC(SC)=NS4(=O)=O)c(Cl)cc2S1 | > 10 | > 10 | > 10 | > 10 | > 10 | > 10 | > 10 | > 10 |  | > 10 | > 10 | > 10 | > 10 | > 10 | > 10 | > 10 | > 10 | > 10 | > 10 | > 10
O=C(NCc1ccc(Cl)cc1)c1cc2sccc2nc1C(F)(F)F | > 100 | > 100 | 39.8 | > 100 | > 100 | 44.8 | 72.1 | > 100 | > 100 | 47.6 | > 100 | > 100 | > 100 | 56.2 | 66.9 | > 100 | > 100 | > 100 | > 100 | 
CCO/C(O)=C(/C(=N)N1CCCC1)C(=O)Nc1cccc(C(F)(F)F)c1 | > 100 | > 100 | > 100 | > 100 | > 100 | > 100 | > 100 | > 100 | > 100 | 70.6 | > 100 | > 100 | > 100 | > 100 | > 100 | > 100 |  | > 100 | > 100 | > 100
Cc1ccc(C(=O)/C(C#N)=C/Nc2c(C)n(C)n(-c3ccccc3)c2=O)cc1 | > 100 | > 100 | > 100 | > 100 | > 100 | > 100 |  | > 100 | > 100 | > 100 | > 100 | > 100 | > 100 | > 100 | > 100 | > 100 | > 100 | > 100 | > 100 | > 100
Cc1ccc(S(=O)(=O)c2c(O)c3ccccc3n(C)c2=O)cc1 |  | > 100 | > 100 | > 100 | > 100 | > 100 | > 100 | > 100 | > 100 | > 100 | > 100 | > 100 | > 100 | > 100 | > 100 | > 100 | > 100 | > 100 | > 100 | > 100
CC(=O)c1cc2c(s1)C(=O)c1ccccc1C2=O | 42.3 | 7.75 | > 71.3 | 4.74 | 28.9 | 57 | 5.98 | > 100 | 2.21 | > 67.6 | 5.5 | 6.77 | 15.9 | > 100 | 16 | 21.4 | 9.1 |  |  | > 66.8
CCOc1cc(C2CC(c3ccc(NS(=O)(=O)c4cc([N+](=O)[O-])ccc4C)cc3)=NN2)ccc1O (configuration not stated) |  | 51.6 | 67.8 | > 100 | 43 | 71.4 | > 100 | > 100 | 85.9 | > 100 | > 100 | 49.6 | 53.3 |  | > 100 | 72.2 | 84 | 80.7 | > 100 | 70.7
C/C(O)=C/c1nc2ccc([N+](=O)[O-])cc2nc1/C=C(/C)O | > 100 | > 100 | > 100 | > 100 | > 100 | > 100 | > 100 | > 100 | > 100 | 85.3 | > 100 |  | > 100 | > 100 | > 100 | > 100 | > 100 | > 100 | 61.9 | 83.6
Cc1sc2ccccc2[n+]1CCC(=O)O | > 100 | > 100 | > 100 | > 100 | > 100 | > 100 | > 100 | > 100 | > 100 | > 100 | > 100 | > 100 | > 100 | > 100 | > 100 | > 100 |  | > 100 |  | > 100
CC(C)CNC(=O)Cn1c(-c2ccccc2)cc2ccccc21 | > 100 | > 100 | > 100 | > 100 | > 100 | > 100 | > 100 | > 100 | > 100 | > 100 | > 100 | > 100 | > 100 | > 100 | > 100 | > 100 | > 100 | > 100 | > 100 | 
COc1cc(S(=O)(=O)Nc2ccc(-c3csc(N4C(=O)CSC4c4ccccc4)n3)cc2)ccc1Cl (configuration not stated) |  | > 100 | > 100 | > 100 | > 100 | > 100 | > 100 | > 100 | > 100 | > 100 | > 100 | 87.4 | > 100 | > 100 | > 100 | > 100 | > 100 | > 100 | > 100 | 3.61
O=c1oc2ccc(Cl)cc2cc1-c1cn2cc(Cl)ccc2n1 | > 100 | > 100 | > 100 | 2.79 | > 100 | > 100 | > 100 | > 100 | 1.18 | > 68.5 | > 100 | 6.37 | > 100 | > 100 | > 100 | > 58.8 | > 100 | > 100 | > 100 | 
CN(C)CCNc1ncnc2nc(-c3ccc4ccccc4c3)[nH]c12 | > 100 | > 100 | > 100 | > 100 | > 100 | > 100 | > 100 | > 100 | > 100 | > 100 | > 100 | > 100 | > 100 | > 100 | > 100 | > 100 | > 100 | > 100 | > 100 | 
O=c1[nH]c2cc3[nH]c4ncccc4c(=O)c3cc2[nH]1 | > 10 | > 10 | > 10 | > 10 | > 10 | > 10 | > 10 | > 10 | > 10 | > 10 | > 10 |  | > 10 | > 10 | > 10 | > 10 |  | > 10 | > 10 | > 10
Cc1ccc(SC(=O)N2C(=S)NC(=NC3CCCCC3)C23CCCCC3)cc1 | > 100 | > 100 | > 100 | > 100 | > 100 | > 100 |  | > 100 | > 100 | > 100 | > 100 | > 100 | > 100 | > 100 | > 100 | > 100 | > 100 | > 100 | > 100 | 
CC(=O)N1CCN(C23OC4(N5CCN(C(C)=O)CC5)C5C6CC(C7C6C4C72)C53)CC1 (configuration not stated) | > 100 | > 100 | > 100 | > 100 | > 100 | > 100 | > 100 | > 100 | > 100 | > 100 | > 100 | > 100 | > 100 | > 100 | > 100 | > 100 | > 100 | > 100 | > 100 | 
